Laboratory results published in publication PMC6268188, “Comparative Studies of the (Anti) Mutagenicity of Baccharis dracunculifolia and Artepillin C by the Bacterial Reverse Mutation Test” (Molecules, 2012).
Where “and” joins values, the source holds several entries; their conditions need not be identical. Equal values may be shown once. Read-outs that look alike come from different tables or passages of the source.

How the values were obtained:
S. typhimurium TA98 [1] = assay: Antimutagenicity assay (Ames test with known mutagens), strain TA98; type: cell-based, Salmonella typhimurium
S. typhimurium TA102 = assay: Antimutagenicity assay (Ames test with known mutagens), strain TA102; type: cell-based, Salmonella typhimurium
S. typhimurium TA98 [2] = system: S. typhimurium TA98
[3] = 0.69 µg/plate + B[a]P 1.0 μg/plate, TA 98, + S9
[4] = 0.69 µg/plate + NOPD 10.0 μg/plate, TA 98, − S9
[5] = 1.37 µg/plate + B[a]P 1.0 μg/plate, TA 98, + S9
[6] = 1.37 µg/plate + NOPD 10.0 μg/plate, TA 98, − S9
[7] = 2.75 µg/plate + B[a]P 1.0 μg/plate, TA 98, + S9
[8] = 2.75 µg/plate + NOPD 10.0 μg/plate, TA 98, − S9
[9] = 5.49 µg/plate + B[a]P 1.0 μg/plate, TA 98, + S9
[10] = 5.49 µg/plate + NOPD 10.0 μg/plate, TA 98, − S9
[11] = […] + B[a]P 1.0 μg/plate, TA 98, + S9
[12] = […] + NOPD 10.0 μg/plate, TA 98, − S9
[13] = 0.69 µg/plate + AF 10.0 μg/plate, TA 102, + S9
[14] = 1.37 µg/plate + AF 10.0 μg/plate, TA 102, + S9
[15] = 1.37 µg/plate + MMC 0.5 μg/plate, TA 102, − S9
[16] = 2.75 µg/plate + AF 10.0 μg/plate, TA 102, + S9
[17] = 2.75 µg/plate + MMC 0.5 μg/plate, TA 102, − S9
[18] = 5.49 µg/plate + AF 10.0 μg/plate, TA 102, + S9
[19] = 5.49 µg/plate + MMC 0.5 μg/plate, TA 102, − S9
[20] = […] + AF 10.0 μg/plate, TA 102, + S9
[21] = […] + MMC 0.5 μg/plate, TA 102, − S9

CC(C)=CCc1cc(/C=C/C(=O)O)cc(CC=C(C)C)c1O [ArtC, 3-{4-hydroxy-3,5-di(3-methyl-2-butenyl)phenyl}-2(E)-propenoic acid]
% inhibition (S. typhimurium TA98 [1]; [3]): 38%
antimutagenic effect class (S. typhimurium TA98 [1]; [3]): ** (moderate effect (25% - 40% inhibition))
% inhibition (S. typhimurium TA98 [1]; [4]): 37%
Number of revertants (M ± SD)/ plate (S. typhimurium TA98 [1]; [4]): 526 ± 12 revertants/plate
antimutagenic effect class (S. typhimurium TA98 [1]; [4]): ** (moderate effect (25% - 40% inhibition))
% inhibition (S. typhimurium TA98 [1]; [5]): 43%
antimutagenic effect class (S. typhimurium TA98 [1]; [5]): *** (strong antimutagenic effect (> 40% inhibition))
% inhibition (S. typhimurium TA98 [1]; [6]): 38%
Number of revertants (M ± SD)/ plate (S. typhimurium TA98 [1]; [6]): 520 ± 18 revertants/plate
antimutagenic effect class (S. typhimurium TA98 [1]; [6]): ** (moderate effect (25% - 40% inhibition))
% inhibition (S. typhimurium TA98 [1]; [7]): 56%
antimutagenic effect class (S. typhimurium TA98 [1]; [7]): *** (strong antimutagenic effect (> 40% inhibition))
% inhibition (S. typhimurium TA98 [1]; [8]): 42%
Number of revertants (M ± SD)/ plate (S. typhimurium TA98 [1]; [8]): 484 ± 31 revertants/plate
antimutagenic effect class (S. typhimurium TA98 [1]; [8]): *** (strong antimutagenic effect (> 40% inhibition))
% inhibition (S. typhimurium TA98 [1]; [9]): 56%
antimutagenic effect class (S. typhimurium TA98 [1]; [9]): *** (strong antimutagenic effect (> 40% inhibition))
% inhibition (S. typhimurium TA98 [1]; [10]): 37%
Number of revertants (M ± SD)/ plate (S. typhimurium TA98 [1]; [10]): 532 ± 27 revertants/plate
antimutagenic effect class (S. typhimurium TA98 [1]; [10]): ** (moderate effect (25% - 40% inhibition))
% inhibition (S. typhimurium TA98 [1]; [11]): 62%
antimutagenic effect class (S. typhimurium TA98 [1]; [11]): *** (strong antimutagenic effect (> 40% inhibition))
% inhibition (S. typhimurium TA98 [1]; [12]): 41%
antimutagenic effect class (S. typhimurium TA98 [1]; [12]): *** (strong antimutagenic effect (> 40% inhibition))
Number of revertants (M ± SD)/ plate (S. typhimurium TA102): 879 ± 11 revertants/plate and 529 ± 20 revertants/plate
% inhibition (S. typhimurium TA102; [13]): 41%
Number of revertants (M ± SD)/ plate (S. typhimurium TA102; [13]): 645 ± 23 revertants/plate
antimutagenic effect class (S. typhimurium TA102; [13]): *** (strong antimutagenic effect (> 40% inhibition))
Number of revertants (M ± SD)/ plate (S. typhimurium TA102; 0.69 µg/plate + MMC 0.5 μg/plate, TA 102, − S9): 1096 ± 19 revertants/plate
% inhibition (S. typhimurium TA102; [14]): 46%
Number of revertants (M ± SD)/ plate (S. typhimurium TA102; [14]): 595 ± 25 revertants/plate
antimutagenic effect class (S. typhimurium TA102; [14]): *** (strong antimutagenic effect (> 40% inhibition))
% inhibition (S. typhimurium TA102; [15]): 5%
Number of revertants (M ± SD)/ plate (S. typhimurium TA102; [15]): 1022 ± 18 revertants/plate
antimutagenic effect class (S. typhimurium TA102; [15]): * (no antimutagenic effect (< 25% inhibition))
% inhibition (S. typhimurium TA102; [16]): 48%
Number of revertants (M ± SD)/ plate (S. typhimurium TA102; [16]): 566 ± 17 revertants/plate
antimutagenic effect class (S. typhimurium TA102; [16]): *** (strong antimutagenic effect (> 40% inhibition))
% inhibition (S. typhimurium TA102; [17]): 7%
Number of revertants (M ± SD)/ plate (S. typhimurium TA102; [17]): 994 ± 25 revertants/plate
antimutagenic effect class (S. typhimurium TA102; [17]): * (no antimutagenic effect (< 25% inhibition))
% inhibition (S. typhimurium TA102; [18]): 56%
Number of revertants (M ± SD)/ plate (S. typhimurium TA102; [18]): 488 ± 14 revertants/plate
antimutagenic effect class (S. typhimurium TA102; [18]): *** (strong antimutagenic effect (> 40% inhibition))
% inhibition (S. typhimurium TA102; [19]): 12%
Number of revertants (M ± SD)/ plate (S. typhimurium TA102; [19]): 943 ± 17 revertants/plate
antimutagenic effect class (S. typhimurium TA102; [19]): * (no antimutagenic effect (< 25% inhibition))
effect on MMC-induced mutagenicity (S. typhimurium TA102; TA102, MMC): did not affect
% inhibition (S. typhimurium TA102; [20]): 52%
antimutagenic effect class (S. typhimurium TA102; [20]): *** (strong antimutagenic effect (> 40% inhibition))
% inhibition (S. typhimurium TA102; [21]): 18%
antimutagenic effect class (S. typhimurium TA102; [21]): * (no antimutagenic effect (< 25% inhibition))
MI (mutagenicity index) (S. typhimurium TA98 [2]; 0.69 µg/plate, TA 98, + S9): 0.9
Number of revertants (M ± SD)/ plate (S. typhimurium TA98 [2]; 0.69 µg/plate, TA 98, + S9): 28 ± 3 revertants/plate
MI (mutagenicity index) (S. typhimurium TA98 [2]; 0.69 µg/plate, TA 98, − S9): 1.0
Number of revertants (M ± SD)/ plate (S. typhimurium TA98 [2]; 0.69 µg/plate, TA 98, − S9): 21 ± 3 revertants/plate
MI (mutagenicity index) (S. typhimurium TA98 [2]; 1.37 µg/plate, TA 98, + S9): 1.1
Number of revertants (M ± SD)/ plate (S. typhimurium TA98 [2]; 1.37 µg/plate, TA 98, + S9): 32 ± 1 revertants/plate
MI (mutagenicity index) (S. typhimurium TA98 [2]; 1.37 µg/plate, TA 98, − S9): 1.2
Number of revertants (M ± SD)/ plate (S. typhimurium TA98 [2]; 1.37 µg/plate, TA 98, − S9): 24 ± 4 revertants/plate
MI (mutagenicity index) (S. typhimurium TA98 [2]; 2.75 µg/plate, TA 98, + S9): 1.0
Number of revertants (M ± SD)/ plate (S. typhimurium TA98 [2]; 2.75 µg/plate, TA 98, + S9): 29 ± 3 revertants/plate
MI (mutagenicity index) (S. typhimurium TA98 [2]; 2.75 µg/plate, TA 98, − S9): 1.4
Number of revertants (M ± SD)/ plate (S. typhimurium TA98 [2]; 2.75 µg/plate, TA 98, − S9): 28 ± 5 revertants/plate
MI (mutagenicity index) (S. typhimurium TA98 [2]; 5.49 µg/plate, TA 98, + S9): 1.1
Number of revertants (M ± SD)/ plate (S. typhimurium TA98 [2]; 5.49 µg/plate, TA 98, + S9): 32 ± 2 revertants/plate
MI (mutagenicity index) (S. typhimurium TA98 [2]; 5.49 µg/plate, TA 98, − S9): 1.5
Number of revertants (M ± SD)/ plate (S. typhimurium TA98 [2]; 5.49 µg/plate, TA 98, − S9): 29 ± 1 revertants/plate
MI (mutagenicity index) (S. typhimurium TA100; 0.69 µg/plate, TA 100, + S9): 1.0
Number of revertants (M ± SD)/ plate (S. typhimurium TA100; 0.69 µg/plate, TA 100, + S9): 171 ± 1 revertants/plate
MI (mutagenicity index) (S. typhimurium TA100; 0.69 µg/plate, TA 100, − S9): 1.2
Number of revertants (M ± SD)/ plate (S. typhimurium TA100; 0.69 µg/plate, TA 100, − S9): 179 ± 4 revertants/plate
MI (mutagenicity index) (S. typhimurium TA100; 1.37 µg/plate, TA 100, + S9): 1.0
